The subject of one series is HIVIIIB. Briefly: Antiviral Activity: anti-HIV activity in MT4 cells infected with HIVIIIB (MTT). The class given is cell-based. As to conditions: Human immunodeficiency virus 1, 120 h, MOI 0.003, 5 days, n=four duplicate determinations. The procedure: (§1) The anti-HIV activity of the compound of the invention was determined in MF4 cells according to the following procedure: MT4 cells were infected with cell-free supernatant of HIVIIIB (previously frozen with known 50% tissue culture infectious dose (TCID50) at 0.003 multiplicity of infection (MOI)) for one hour. After one hour infection, cells were washed twice to remove residual viruses, resuspended in culture media and seeded into 96-well tissue culture plates at 1×10^4 cells per well with various half-log dilutions of compounds. Uninfected cells were included a toxicity and cell controls. RPMI 1640 media (GIBCO) with 10% fetal bovine serum was used as culture media. Various concentrations (50%, 25% and 12.5%) of human serum (SIGMA) were added to culture media resulting in final concentrations of 60%, 35% and 22.5% total serum. All assay plates were incubated in a 37° C. incubator for 5 days. The compound 3-[4,5-dimethylthiozol-2-yl]-2,5-diphenyltetrazolium bromide (MTT, SIGMA, 5 mg .mL stock in PBS) was then added to all wells at 25 μL per well and incubated for 4 hours. SDS (20%) with 0.02N HCl in water was added at 50 μL per well to lyse cells. Plates were incubated overnight for complete cell lysis and then read on a microtiter plate reader at 570/650 nm wavelengths to determine cell optical density (O.D.). Raw data was analysed for percent inhibition by the following formula: [formula]
The 50% effective concentration (EC50) was calculated by the median effect equation (Chou, 1975, Proc. Int. Cong. Pharmacol. 6th p. 619) to determine the efficacy of compound. The 50% cytotoxicity concentration (CTC50) was calculated using uninfected MT4 cells
Under these conditions, the data of Table 2 was obtained (n=four duplicate determinations).

Series [1] can be described thus: Cytotoxicity in uninfected MT4 cells (MTT). The class given is cell-based. The following applies: human, 5 days, n=four duplicate determinations, read-out: CTC50 (50% cytotoxicity concentration). The procedure:
as §1, with “RPMI 1640 media (GIBCO) with 10% fetal bovine serum was used as culture media. Various concentrations (50%, 25% and 12.5%) of human serum (SIGMA) were added to culture media resulting in final concentrations of 60%, 35% and 22.5% total serum.” left out, “The compound 3-[4,5-dimethylthiozol-2-yl]-2,5-diphenyltetrazolium bromide (MTT, SIGMA, 5 mg .mL stock in PBS) was then added to all wells at 25 μL per well and incubated for 4 hours.” left out
The 50% cytotoxicity concentration (CTC50) was calculated using uninfected MT4 cells

The target in another series is HIV-1 protease (Human immunodeficiency virus type 1 group M subtype B, UniProt P04585). In words: Fluorogenic Assay for Screening Inhibitors of HIV Protease. As to conditions: pH 4.5.

The text below walks through data of patent US5905068A, “Retroviral protease inhibiting compounds” (Abbott Laboratories, priority 1996, dated 1999).

Structures are written as SMILES. pEC50: −log10 of the molar value.

Protocol for HIV-1 protease: The inhibitory potency of the compounds of the invention were determined by the following method: The compound of the invention was dissolved in DMSO and a small aliquot further diluted with DMSO to 100 times the final concentration desired for testing. The reaction was carried out in a 6×50 mm tube in a total volume of 300 microliters. […] After addition of inhibitor, the reaction mixture was placed in the fluorometer cell holder and incubated at 30° C. for several minutes. The reaction was initiated by the addition of a small aliquot of cold HIV protease. The fluorescence intensity (excitation 340 nm, emission 490 nm) was recorded as a function of time. The reaction rate was determined for the first six to eight minutes. The observed rate was directly proportional to the moles of substrate cleaved per unit time. The percent inhibition was calculated according to the equation: 100×(1-(rate of inhibitor)/(rate in absence of inhibitor)). As a control, duplicate reactions were performed identically as above but without the addition of an inhibitor compound.

In the case of `Cc1cc2ncoc2c(C)c1OCC(=O)N[C@@H](Cc1ccccc1)C[C@H](O)[C@H](Cc1ccccc1)NC(=O)O[C@H]1CO[C@H]2OCC[C@H]21` [Example 26, (2S,3S,5S)-5-(4,6-Dimethyl-benzoxazol-5-yloxy-acetyl)amino-2-((3R,3aS,6aR)-bis-tetrahydrofuran-3-yl-oxycarbonyl)amino-1,6-diphenyl-3-hydroxyhexane], the negative-log EC50 (pEC50) (usually the EC50 on a negative log10 scale, so that one unit is a factor of ten) in the series with HIVIIIB was 6.80. Besides, the CC50 at 120 h in series [1] turned out to be 29800 nM. For the same compound, the inhibition (as a rule, the percentage by which the read-out fell short of the control) at 0.0005 µM against HIV-1 protease came out at 80%.
Compound `CC(C)c1nc(CN(C)C(=O)N[C@H](C(=O)N[C@@H](Cc2ccccc2)C[C@H](O)[C@H](Cc2ccccc2)NC(=O)O[C@@H]2CO[C@@H]3OCC[C@@H]32)C(C)C)cs1` [Example 48, (2S,3S,5S)-5-(N-(N-((N-Methyl-N-((2-isopropyl-4-thiazolyl)methyl)amino)carbonyl)-L-valinyl)amino)-2-((3S,3aR,6aS)-bis-tetrahydrofuran-3-yl-oxycarbonyl)amino-1,6-diphenyl-3-hydroxyhexane] had a pEC50 in the series with HIVIIIB of 7.96. The CC50 at 120 h in series [1] was found to be 46600 nM. Moreover, at HIV-1 protease, the inhibition at 0.0005 µM came to 80%.
`CC(C)c1nc(COC(=O)N[C@@H](C(=O)N[C@@H](Cc2ccccc2)C[C@H](O)[C@H](Cc2ccccc2)NC(=O)OC2COC3OCCC23)C(C)C)cs1` (stereo partly drawn) [Example 36]: in the series with HIVIIIB, the pEC50 is 7.52. The CC50 at 120 h in series [1] came to 27800 nM. At 0.0005 µM the inhibition against HIV-1 protease was 66%.
Consider `Cc1cc(C)c(OCC(=O)N[C@@H](Cc2ccccc2)C[C@H](O)[C@H](Cc2ccccc2)NC(=O)O[C@H]2CO[C@H]3OCC[C@H]32)c(C)c1` [Example 11, (2S,3S,5S)-5-(2,4,6-Trimethyl-phenoxyacetyl)amino-2-((3R,3aS,6aR)-bis-tetrahydrofuran-3-yl-oxycarbonyl)amino-1,6-diphenyl-3-hydroxyhexane], for which the pEC50 in the series with HIVIIIB was 6.69. Further, the CC50 at 120 h in series [1] was found to be 48000 nM. The compound also registered an inhibition at 0.0005 µM against HIV-1 protease of 82%.
In the series with HIVIIIB, `Cc1cc(C)c(OCC(=O)N[C@@H](Cc2ccccc2)C[C@H](O)[C@H](Cc2ccccc2)NC(=O)O[C@H]2CO[C@H]3OCC[C@H]32)c(C)c1N` [Example 4, (2S,3S,5S)-5-(2,4,6-Trimethyl-3-amino-phenoxyacetyl)amino-2-((3R,3aS,6aR)-bis-tetrahydrofuran-3-yl-oxycarbonyl)amino-1,6-diphenyl-3-hydroxyhexane] gave a pEC50 of 7.49. The CC50 at 120 h in series [1] came out at 41000 nM. The compound further came in with an inhibition at 0.0005 µM against HIV-1 protease of 74%.
For `Cc1cc2[nH]cnc2c(C)c1OCC(=O)N[C@@H](Cc1ccccc1)C[C@H](O)[C@H](Cc1ccccc1)NC(=O)O[C@H]1CO[C@H]2OCC[C@H]21` [Example 24, (2S,3S,5S)-5-(4,6-Dimethyl-benzimidazol-5-yloxy-acetyl)amino-2-((3R,3aS,6aR)-bis-tetrahydrofuran-3-yl-oxycarbonyl)amino-1,6-diphenyl-3-hydroxyhexane] the same measures were 6.94, > 100000 nM and 80%.
In the case of `Cc1cccc(C)c1NCC(=O)N[C@@H](Cc1ccccc1)[C@@H](O)C[C@H](Cc1ccccc1)NC(=O)O[C@H]1CO[C@H]2OCC[C@H]21` [Example 9, (2S,3S,5S)-5-(N-(2,6-Dimethyl-phenyl)aminoacetyl)amino-2-((3R,3aS,6aR)-bis-tetrahydrofuran-3-yl-oxycarbonyl)amino-1,6-diphenyl-3-hydroxyhexane], the pEC50 with HIVIIIB is 6.60. Moreover, the CC50 at 120 h in series [1] stood at 56000 nM. Besides, the inhibition at 0.0005 µM at HIV-1 protease was found to be 69%.
In turn, `O=C(N[C@@H](Cc1ccccc1)[C@@H](O)C[C@H](Cc1ccccc1)NC(=O)c1ccc(O)cc1Cl)O[C@H]1CO[C@H]2OCC[C@H]21` [Example 57, (2S,3S,5S)-5-(2-Chloro-4-hydroxy-benzoyl)amino-2-((3R,3aS,6aR)-bis-tetrahydrofuran-3-yl-oxycarbonyl)amino-1,6-diphenyl-3-hydroxyhexane] had a pEC50 in the series on HIVIIIB of 6.92. Further, the CC50 at 120 h in series [1] is 80900 nM. For the same compound, testing at 0.0005 µM at HIV-1 protease gave an inhibition of 78%.
Take `CC(C)[C@H](NC(=O)OCc1cncs1)C(=O)N[C@@H](Cc1ccccc1)C[C@H](O)[C@H](Cc1ccccc1)NC(=O)O[C@H]1CO[C@H]2OCC[C@H]21` [Example 42, (2S,3S,5S)-5-(N-(N-((5-Thiazolyl)methoxycarbonyl)-L-valinyl)amino)-2-((3R,3aS,6aR)-bis-tetrahydrofuran-3-yl-oxycarbonyl)amino-1,6-diphenyl-3-hydroxyhexane]: the pEC50 with HIVIIIB was 7.15. The CC50 at 120 h in series [1] was > 100000 nM. Further, at HIV-1 protease, at 0.0005 µM the inhibition was 80%.
In turn, `Cc1cc(N)cc(C)c1OCC(=O)N[C@@H](Cc1ccccc1)[C@@H](O)C[C@H](Cc1ccccc1)NC(=O)O[C@H]1CO[C@H]2OCC[C@H]21` [Example 3, (2S,3S,5S)-2-(2,6-Dimethyl-4-amino-phenoxyacetyl)amino-5-((3R,3aS,6aR)-bis-tetrahydrofuran-3-yl-oxycarbonyl)amino-1,6-diphenyl-3-hydroxyhexane] showed a pEC50 in the series with HIVIIIB of 8.10. Moreover, in series [1], the CC50 at 120 h came out at 61000 nM. The compound further gave an inhibition at 0.0005 µM at HIV-1 protease of 91%.
For `Cc1nc(CN(C)C(=O)N[C@H](C(=O)N[C@@H](Cc2ccccc2)C[C@H](O)[C@H](Cc2ccccc2)NC(=O)OC2COC3OCCC23)C(C)C)cs1` (stereo partly drawn) [Example 52, (2S,3S,5S)-5-(N-(N-((N-Methyl-N-((2-methyl-4-thiazolyl)methyl)amino)carbonyl)-L-valinyl)amino)-2-((3R,3aS,6aR),(3S,3aR,6aS)-bis-tetrahydrofuran-3-yl-oxycarbonyl)amino-1,6-diphenyl-3-hydroxyhexane], in the series on HIVIIIB, the negative logarithm of the EC50 (pEC50) is 7.14. In addition, the CC50 at 120 h in series [1] is > 100000 nM. At HIV-1 protease, this compound showed an inhibition at 0.0005 µM of 69%.
On to `CC(C)c1nc(CN(C)C(=O)N[C@H](C(=O)N[C@@H](Cc2ccccc2)C[C@H](O)[C@H](Cc2ccccc2)NC(=O)O[C@H]2CCOC2)C(C)C)cs1` [Example 50, (2S,3S,5S)-5-(N-(N-((N-Methyl-N-((2-isopropyl-4-thiazolyl)methyl)amino)carbonyl)-L-valinyl)amino)-2-(3S-tetrahydrofuran-3-yl-oxycarbonyl)amino-1,6-diphenyl-3-hydroxyhexane], for which the pEC50 in the series on HIVIIIB is 7.49. Moreover, the CC50 at 120 h in series [1] is 56200 nM. The same compound had an inhibition at 0.0005 µM against HIV-1 protease of 68%.
In the series with HIVIIIB, `Cc1c(O)cccc1C(=O)N[C@@H](Cc1ccccc1)[C@@H](O)C[C@H](Cc1ccccc1)NC(=O)O[C@@H]1CO[C@@H]2OCC[C@@H]21` [Example 60, (2S,3S,5S)-2-(3-Hydroxy-2-methyl-benzoyl)amino-5-((3S,3aR,6aS)-bis-tetrahydrofuran-3-yl-oxycarbonyl)amino-1,6-diphenyl-3-hydroxyhexane] had a negative logarithm of the EC50 (pEC50) of 5.95. For the same compound, the CC50 at 120 h in series [1] was > 100000 nM. The inhibition at 0.0022 µM at HIV-1 protease is 50%.
In the series with HIVIIIB, `Cc1cccc(C)c1N(C)CC(=O)N[C@@H](Cc1ccccc1)C[C@H](O)[C@H](Cc1ccccc1)NC(=O)O[C@H]1CO[C@H]2OCC[C@H]21` [Example 13, (2S,3S,5S)-5-(N-(2,6-Dimethyl-phenyl)-N-methyl-aminoacetyl)amino-2-((3R,3aS,6aR)-bis-tetrahydrofuran-3-yl-oxycarbonyl)amino-1,6-diphenyl-3-hydroxyhexane] gave a negative logarithm of the EC50 (pEC50) of 5.54. Also, the CC50 at 120 h in series [1] came to 18000 nM. Besides, testing at 0.0024 µM on HIV-1 protease gave an inhibition of 50%.
For `Cc1cc(N(C)C)cc(C)c1OCC(=O)N[C@@H](Cc1ccccc1)C[C@H](O)[C@H](Cc1ccccc1)NC(=O)O[C@H]1CO[C@H]2OCC[C@H]21` [Example 15, 5-(2,6-Dimethyl-4-N, N-dimethylamino-phenoxyacetyl)amino-2-((3R,3aS,6aR)-bis-tetrahydrofuran-3-yl-oxycarbonyl)amino-1,6-diphenyl-3-hydroxyhexane], in the series with HIVIIIB, the pEC50 is 6.80. For the same compound, in series [1], the CC50 at 120 h was 46000 nM. In addition, at 0.0005 µM the inhibition against HIV-1 protease was 43%.
For `CC(C)c1nc(COC(=O)N[C@H](C(=O)N[C@@H](Cc2ccccc2)C[C@H](O)[C@H](Cc2ccccc2)NC(=O)OC2COC3OCCC23)C(C)C)cs1` (stereo partly drawn) [Example 37] the same measures were 7.85, > 100000 nM and 83%.
